What all share (assay): In-vitro tumor cell proliferation inhibition, MTT
Assay type in all cases: cell-based, human

The subject of test [1] is breast carcinoma cell strain MDA-MB-468. As to conditions: 72 hours. An excerpt: (§1) The object of this assay was to test the inventive compounds for the inhibitory activity of in-vitro tumor cell proliferation. The MTT (tetreamethyl-azo-zole-salt) colorimetric method was used in this assay.
(§2) Human non-small cell lung carcinoma cell strains HCC827, PC-9, H1975 (EGFR L858R/T790M mutation) and H292 (EGFR WT), and other tumor type cell strains, including human acute myelogenous leukemia cell strain MV4-11, human chronic granulocytic leukemia cell strain K562, human squamous cell carcinoma cell strain A431, human breast carcinoma cell strains MDA-MB-468 and BT 474, human colon cancer cell strains SW480, HCT116 and SW620, human liver cancer cell strain Hep G2, human gastric cancer cell strain MK-45, and human malignant melanoma cell strain A375 used in this assay were all purchased from ATCC company, USA and kept in the laboratory. All of the above-mentioned non-small cell lung carcinoma cell strains and the breast carcinoma cell strain BT 474 were cultured with a RPMI-1640 complete culture medium containing 10% fetal bovine serum, 100 U/ml penicillin and 100 μg/ml streptomycin under 5% CO2 and at 37° C. The other cell strains were cultured with a DMEM complete culture medium containing 10% fetal bovine serum (having a MV4-11 cell content of 20%), 100 U/ml penicillin and 100 μg/ml streptomycin under 5% CO2 and 37° C.
(§3) A cell suspension having a cell concentration of 1-2×10^4 cells/ml was treated with a complete cell culture solution to adjust the cell concentration, wherein the cell concentrations for HCC827 and MV4-11 were adjusted to 6×10^4 cells/ml and 1×10^5 cells/ml respectively. The cell suspension was inoculated in a 96-well plate with 200 μl cell suspension/well and cultured overnight. Next day, the supernatant was drawn off and discarded. Then, the cells were treated with the tested compounds in a gradient concentration respectively. In the meanwhile, a negative control group free of the drug substance and an isovolumetric solvent control group (having a DMSO concentration of 1%) were used. The triplicate wells were used for each of dose groups. The culturing was conducted at 37° C. under 5% CO2. After 72 hours, […] having a concentration of 5 mg/ml was added to each of wells. The culturing was further conducted for 2-4 hours. The supernatant was discarded. Then […] was added to each of wells. The contents in the well were mixed homogenously by oscillation for 15 minutes. The absorbance (A) value was measured with a microplate reader at λ=570 nm (the A value is in the direct proportion to the number of living cells) and averaged. The relative cell proliferation inhibitory rate is (A570 control-group−A570 dose-group)/A570 control-group×100%. The assay was repeated for at least three times. The data was expressed as number average. The statistical data were analyzed using t-test. P<0.05 was considered significant. The cell proliferation inhibition of the following compounds was expressed as IC50 or inhibitory rate.

Test [2] relates to colon cancer cell strain SW480. As to conditions: 72 hours.
From the text: as §1, §2, §3

Test [3] relates to liver cancer cell strain Hep G2. As to conditions: 72 hours, read-out: HEPG2 (IC50).
From the text: as §1, §2, §3

Test [4] relates to colon cancer cell strain HCT116. As to conditions: 72 hours.
From the text: as §1, §2, §3

The subject of test [5] is breast carcinoma cell strain BT474. The conditions noted are these: 72 hours.
From the text: as §1, §2, §3

Test [6] concerns chronic granulocytic leukemia cell strain K562. As to conditions: 72 hours.
From the text: as §1, §2, §3

Test [7] relates to colon cancer cell strain SW620. As to conditions: 72 hours.
From the text: as §1, §2, §3

Test [8] concerns malignant melanoma cell strain A375. As to conditions: 72 hours.
From the text: as §1, §2, §3

Test [9] deals with acute myelogenous leukemia cell strain MV4-11. As to conditions: 72 hours.
From the text: as §1, §2, §3

For test [10], the system named is gastric cancer cell strain MK-45. The conditions noted are these: 72 hours, read-out: MK45 (IC50).
From the text: as §1, §2, §3

In test [11] the test system is squamous cell carcinoma cell strain A431. As to conditions: 72 hours.
From the text: as §1, §2, §3

In test [12] the test system is non-small cell lung carcinoma cell strain H1975 (EGFR L858R/T790M mutation). The conditions noted are these: 72 hours. As to the method: as §1
(§4) All of the above-mentioned non-small cell lung carcinoma cell strains and the breast carcinoma cell strain BT 474 were cultured with a RPMI-1640 complete culture medium containing 10% fetal bovine serum, 100 U/ml penicillin and 100 μg/ml streptomycin under 5% CO2 and at 37° C. The other cell strains were cultured with a DMEM complete culture medium containing 10% fetal bovine serum (having a MV4-11 cell content of 20%), 100 U/ml penicillin and 100 μg/ml streptomycin under 5% CO2 and 37° C.
as §3

For test [13], the system named is non-small cell lung carcinoma cell strain HCC827. As to conditions: 72 hours. As to the method:
as §1, §4, §3

The test system of test [14] is non-small cell lung carcinoma cell strain PC-9 (EGFR delE746-A750 deletion mutation). As to conditions: 72 hours. The procedure:
as §1, §4, §3

For test [15], the system named is non-small cell lung carcinoma cell strain H292 (EGFR WT). As to conditions: 72 hours. The procedure: as §1, §4, §3

10 compounds from US9096601B2 (CSPC Zhongqi Pharmaceutical Technology (Shijiazhuang) Co., …, priority 2010, dated 2015) can be followed below.

For the compound `c1ccc(Nc2nc3cnc(Nc4ccc(CN5CCOCC5)cc4)nc3n2C2CCCC2)cc1` [Compounds 8-48], the IC50 – broadly, the concentration that gives 50% inhibition – in test [1] is 2130 nM; in test [2] it was 9890 nM; in test [3], more than 10000 nM; in test [4], more than 10000 nM; in test [5], 525 nM; in test [6] it was 230 nM. Further, the IC50 in test [7] stood at 2940 nM; in test [8], 2080 nM; in test [9], 583 nM; in [10], 297 nM; in test [11], 788 nM; in test [12], 4580 nM. In addition, the IC50 worked out at 0.2 nM in [13], 26.2 nM in test [14] and 18.5 nM in test [15].

In the case of `CN1CCN(c2ccc(Nc3ncc4nc(Nc5cccc(F)c5)n(C5CCCC5)c4n3)cc2)CC1` [Compounds 8-49], the IC50 in test [1] worked out at 987 nM; in [2], 5040 nM; in [3] it was 9240 nM; in [4], 1440 nM; in [5] it was 2670 nM; in [6] it was 121 nM. For the same compound, the IC50 was 1440 nM in test [7]; 1980 nM in [8]; 193 nM in test [9]; 543 nM in test [10]; 586 nM in test [11]; 310 nM in test [12]. For the same compound, the IC50 came to 0.3 nM in test [13], 0.2 nM in [14] and 4.5 nM in [15].

Regarding `CN1CCN(c2ccc(Nc3ncc4nc(Nc5ccccc5)n(C5CCCCC5)c4n3)cc2)CC1` [Compounds 8-50], the half-inhibitory concentration (IC50) in test [1] was determined as 207 nM; in test [2], 2720 nM; in [3], 8250 nM; in test [4], 2470 nM; in test [5], 2160 nM; in [6], 30.5 nM. Further, the IC50 in [7] turned out to be 964 nM; in [8] it was 1560 nM; in test [9], 64.4 nM; in [10] it was 218 nM; in test [11], 82.9 nM; in test [12] it was 182 nM. For the same compound, the IC50 in test [13] is 0.3 nM; in test [14] it was 3.5 nM; in [15], more than 10000 nM.

Consider `CN1CCN(c2ccc(Nc3ncc4nc(Nc5cccc(O)c5)n(C5CCCC5)c4n3)cc2)CC1` [Compounds 8-51], for which the half-inhibitory concentration (IC50) in test [1] was determined as 351 nM; in [2], 6720 nM; in test [3] it was 8220 nM; in test [4] it was 4140 nM; in test [5], 764 nM; in [6], 11.3 nM. Also, the IC50 in [7] worked out at 733 nM; in test [8], 539 nM; in test [9], 3.6 nM; in [10], 248 nM; in test [11] it was 248 nM; in test [12], 630 nM. In addition, the results for the IC50 in test [13], in test [14] and in test [15] were 0.2 nM, 9.5 nM and 22.3 nM, respectively.

Regarding `CN1CCN(c2ccc(Nc3ncc4nc(Nc5cccc(Cl)c5)n(C5CCCC5)c4n3)cc2)CC1` [Compounds 8-52], the IC50 stood at 737 nM in test [1]; 4620 nM in test [2]; 7230 nM in [3]; 5930 nM in [4]; 165 nM in [5]; 148 nM in [6]. For the same compound, the concentration for half-maximal inhibition (IC50) came to 1570 nM in [7]; 974 nM in test [8]; 642 nM in [9]; 457 nM in test [10]; 79.6 nM in test [11]; 271 nM in test [12]. The IC50 in test [13] was found to be 0.3 nM; in test [14] it was 0.6 nM; in test [15], 4 nM.

On to `Cc1cccc(Nc2nc3cnc(Nc4ccc(N5CCN(C)CC5)cc4)nc3n2C2CCCC2)c1` [Compounds 8-53], for which the IC50 in test [1] is 622 nM; in test [2] it was 4210 nM; in test [3] it was more than 10000 nM; in test [4] it was more than 10000 nM; in test [5] it was 1510 nM; in test [6] it was 95.3 nM. The IC50 in test [7] worked out at 2110 nM; in test [8], 8070 nM; in test [9], 899 nM; in test [10], 559 nM; in test [11], 249 nM; in test [12] it was 552 nM. Also, the figures for the IC50 in test [13], in test [14] and in test [15] were 0.2 nM, 0.2 nM and 4.1 nM, respectively.

In the case of `CN1CCN(c2ccc(Nc3ncc4nc(Nc5cc(Cl)cc(Cl)c5)n(C5CCCC5)c4n3)cc2)CC1` [Compounds 8-54], the IC50 came out at 3350 nM in [1]; 6730 nM in [2]; 5980 nM in test [3]; 6960 nM in test [4]; 3960 nM in [5]; 863 nM in test [6]. Further, the IC50 in test [7] was determined as 6640 nM; in test [8] it was 5580 nM; in test [9], 1070 nM; in test [10], 688 nM; in [11], 2060 nM; in test [12], 1700 nM. Besides, the IC50 worked out at 6.3 nM in test [13], 204 nM in test [14] and 279 nM in test [15].

Turning to `CN1CCN(c2ccc(Nc3ncc4nc(Nc5cc(F)ccc5F)n(C5CCCC5)c4n3)cc2)CC1` [Compounds 8-55], the IC50 was 2180 nM in test [1]; 5320 nM in test [2]; 4680 nM in test [3]; 6550 nM in [4]; 456 nM in test [5]; 88 nM in test [6]. The IC50 in [7] turned out to be 2970 nM; in test [8] it was 2770 nM; in [9], 682 nM; in test [10], 1720 nM; in test [11], 198 nM; in [12], 323 nM. Also, the IC50 was 0.2 nM in [13], 1 nM in test [14] and more than 10000 nM in test [15].

For `COCCOc1ccc(Nc2ncc3nc(Nc4ccccc4)n(C4CCCC4)c3n2)cc1` [Compounds 8-56], the IC50 in test [1], in [2], in test [3], in test [4], in test [5] and in test [6] was more than 10000 nM throughout. The IC50 in test [7] is more than 10000 nM; in test [8], more than 10000 nM; in test [9] it was 4430 nM; in [10] it was more than 10000 nM; in test [11], more than 10000 nM; in test [12], more than 10000 nM. Besides, the figures for the IC50 in test [13], in test [14] and in test [15] were 0.6 nM, 7 nM and 81 nM, respectively.

Take `CN1CCN(c2ccc(Nc3ncc4nc(Nc5cc(Cl)c(Cl)cc5Cl)n(C5CCCC5)c4n3)cc2)CC1` [Compounds 8-57]: the IC50 is more than 10000 nM in [1]; 9760 nM in [2]; more than 10000 nM in test [3]; 7860 nM in test [4]; more than 10000 nM in test [5]; 352 nM in [6]. In addition, the IC50 in [7] was 8370 nM; in test [8], more than 10000 nM; in test [9], 6160 nM; in [10] it was 4590 nM; in test [11] it was 5770 nM; in [12], more than 10000 nM. Also, the figures for the IC50 in test [13], in test [14] and in [15] were 28 nM, 177 nM and 752 nM, respectively.
